Measured values from PMC7395068, “The evolution of strategies to minimise the risk of human drug-induced liver injury (DILI) in drug discovery and development” (Archives of Toxicology, 2020).
Where two headings read alike, the source gives them in different places.

Columns and labels:
[1] = tested on: HepG2 cells, primary human hepatocytes; details: In vitro Assay; ref Garside 2014; cited from earlier work
[2] = tested on: hLiMTs; details: cited from earlier work; for hLiMTs ATP <100uM: In vitro Assay, ref Proctor 2017; for hLiMTs/100uM, Proctor (2017): IC50 threshold 100 µM
[3] = tested on: HepaRG spheroids; assay: Combined HCI (HCS) and cellular ATP 3D assay in HepaRG spheroids; details: for HepaRG <25x Avg Cmax ATP / HepaRG <100x Avg Cmaxu ATP: ATP endpoint; for HepaRG <25x Avg Cmax ATP / HepaRG <25x Avg Cmax HCS / HepaRG <25x Avg Cmax All: cut-off <25x Avg Cmax; for HepaRG <100x Avg Cmaxu ATP / HepaRG <100x Avg Cmaxu HCS / HepaRG <100x Avg Cmaxu All: cut-off <100x Avg Cmaxu; for HepaRG <25x Avg Cmax HCS / HepaRG <100x Avg Cmaxu HCS: HCS endpoints; for HepaRG <25x Avg Cmax All: all endpoints (ATP and HCS); for HepaRG Cmax max All / HepaRG Cmax min All / HepaRG <10 uM All / HepaRG <100x Avg Cmaxu All: all endpoints; for HepaRG Cmax max All: Cmax max used; for HepaRG Cmax min All: Cmax min used; for HepaRG <10 uM All: cut-off <10 uM; for DILI prediction HepaRG spheroids (HCS-MEC): Microtissue model structural based (HCI), combined HCS and ATP, MEC < 25 × Cmax.tot cut-off; for AC50 / minimal effective concentration: Homo sapiens; for HepaRG <25x Avg Cmax ATP / HepaRG <100x Avg Cmaxu ATP / HepaRG <25x Avg Cmax HCS / HepaRG <100x Avg Cmaxu HCS / HepaRG <25x Avg Cmax All / HepaRG Cmax max All / HepaRG Cmax min All / HepaRG <10 uM All / HepaRG <100x Avg Cmaxu All / AC50 / minimal effective concentration: HepaRG
[4] = tested on: isolated mouse liver mitochondria; details: In vitro Assay; ref Porceddu 2012; cited from earlier work
[5] = cited from earlier work
[6] = tested on: PHH; details: cited from earlier work; for PHH/100uM, Proctor (2017): IC50 threshold 100 µM; for PHH ATP <100uM: In vitro Assay, ref Proctor 2017
[7] = Plasma free fraction (fu) and unbound Cmax (Cmax,u); type: in vitro ADME, human; details: unbound plasma Cmax
Experimental: The prediction of DILI severity was evaluated further using the 3D combined HCI assays using plasma-free fraction. The majority of fu values were obtained from literature, when unavailable in-house prediction was utilised. Unbound plasma Cmax concentrations (Cmax,u) were derived by multiplying total plasma Cmax with the corresponding free fraction (fu) for each compound.

[8] = plasma free fraction; cited from earlier work
[9] = tested on: primary human hepatocytes, NIH3T3 fibroblasts, BSEP, CYP3A4; details: cited from earlier work
[10] = tested on: hLiMTs; assay: Combined HCI (HCS) and cellular ATP 3D assay in hLiMTs; details: for AC50 / minimal effective concentration: Homo sapiens; for hLiMTs <25x Avg Cmax ATP / hLiMTs <100x Avg Cmaxu ATP: ATP endpoint; for hLiMTs <25x Avg Cmax ATP / hLiMTs <25x Avg Cmax HCS / hLiMTs <25x Avg Cmax All: cut-off <25x Avg Cmax; for hLiMTs <100x Avg Cmaxu ATP / hLiMTs <100x Avg Cmaxu HCS / hLiMTs <100x Avg Cmaxu All: cut-off <100x Avg Cmaxu; for hLiMTs <25x Avg Cmax HCS / hLiMTs <100x Avg Cmaxu HCS: HCS endpoints; for hLiMTs <25x Avg Cmax All: all endpoints (ATP and HCS); for hLiMTs Cmax max All / hLiMTs Cmax min All / hLiMTs <10 uM All / hLiMTs <100x Avg Cmaxu All: all endpoints; for hLiMTs Cmax max All: Cmax max used; for hLiMTs Cmax min All: Cmax min used; for hLiMTs <10 uM All: cut-off <10 uM
[11] = tested on: HepG2 cells; details: cited from earlier work
[12] = read-out: Human plasma Cmax; total plasma Cmax.tot, median of 9 literature references; cited from earlier work
[13] = cited from earlier work; remark: listed apart in the source
[14] = tested on: THLE or HepG2 cells, isolated mitochondria, BSEP; details: cited from earlier work
[15] = tested on: human hepatocytes; details: In vitro Assay; ref Xu 2008; cited from earlier work
[16] = tested on: PHH spheroids; details: In vitro Assay; ref Vorrink 2018; cited from earlier work
[17] = hLiMTs, ATP, ref Proctor et al. 2017
[18] = 2D PHH, ATP, ref Proctor et al. 2017
[19] = In vitro Assay, ref Schadt 2015

Structure (SMILES): CN(C)C(=N)N=C(N)N [metformin]
- Cluster 1-6 +VE Assay [1]: +VE
- hLiMTs ATP <100uM [2]: -VE
- hLiMTs/100xCmax, Proctor (2017) ([2]; hLiMTs, ATP, IC50 < 100 × Cmax.tot, ref Proctor et al. 2017): -VE
- hLiMTs/100uM, Proctor (2017) [2, 17]: -VE
- HepaRG <25x Avg Cmax ATP [3]: -ve
- HepaRG <100x Avg Cmaxu ATP [3]: -ve
- HepaRG <25x Avg Cmax HCS [3]: -ve
- HepaRG <100x Avg Cmaxu HCS [3]: -ve
- HepaRG <25x Avg Cmax All [3]: -ve
- HepaRG Cmax max All [3]: -ve
- HepaRG Cmax min All [3]: -ve
- HepaRG <10 uM All [3]: -ve
- HepaRG <100x Avg Cmaxu All [3]: -ve
- DILI prediction HepaRG spheroids (HCS-MEC) [3]: -VE
- in vitro data EC2<=1x Cmax [4]: +VE
- in vitro data EC20<=2uM [4]: -VE
- DILI severity category (Chen et al. [2016]) ([5]; LTKB DILIrank category, ref Chen et al. 2016): Less
- DILI severity category (Chen 2016) ([5]; human DILI classification, LTKB DILIrank, ref Chen et al. 2016): Less
- DILI severity category ([5]; human DILI severity, ref Chen et al.): Less
- DILI +VE (5-8), DILI -VE (-4) ([5]; ref Chen 2016): +VE
- DILI severity category ([5]; ref Chen 2016): vLess-DILI-Concern
- PHH/100xCmax, Proctor (2017) ([6]; 2D PHH, ATP, IC50 < 100 × Cmax.tot, ref Proctor et al. 2017): -VE
- PHH/100uM, Proctor (2017) [6, 18]: -VE
- PHH ATP <100uM [6]: -VE
- Human plasma Cmax,u [7]: 7743 nM
- fu [8]: 0.990
- DILI in vitro assay prediction, Schadt (2015) ([9]; BSEP & Metabolism based, ref Schadt et al. 2015): -VE
- Cellular toxicity (3T3 cells) [9, 19]: -VE
- Combined Assay [9, 19]: -VE
- GSH adduct HML [9, 19]: -VE
- Hepatocyte cellular toxicity [9, 19]: -VE
- MitoTox 3T3 [9, 19]: -VE
- TDI CYP3A4 [9, 19]: -VE
- hBSEP inhibition [9, 19]: -VE
- DILI prediction hLiMTs, HCI alone ([10]; HCS endpoints only, 25 × Cmax.tot cut-off): detection
- AC50 ([10]; read-out: ATP endpoint AC50): 768 µM
- minimal effective concentration ([10]; read-out: ATP endpoint MEC): 503 µM
- minimal effective concentration ([10]; read-out: HCS endpoint MEC): 28.1 µM
- DILI prediction hLiMTs, ATP alone ([10]; cellular ATP only, 25 × Cmax.tot cut-off): unpredicted
- hLiMTs <25x Avg Cmax ATP [10]: -ve
- hLiMTs <100x Avg Cmaxu ATP [10]: +ve (<100x Avg Cmaxu)
- hLiMTs <25x Avg Cmax HCS [10]: +ve
- hLiMTs <100x Avg Cmaxu HCS [10]: +ve (<100x Avg Cmaxu)
- hLiMTs <25x Avg Cmax All [10]: +ve
- hLiMTs Cmax max All [10]: +ve
- hLiMTs Cmax min All [10]: +ve
- hLiMTs <10 uM All [10]: -ve
- hLiMTs <100x Avg Cmaxu All [10]: +ve (<100x Avg Cmaxu)
- Structural based (HCI) ([11]; In vitro Assay, ref O'Brien 2006): +VE
- DILI in vitro assay prediction, O'Brien (2006) ([11]; Structural based (HCI), HepG2, ref O'Brien et al. 2006): +VE (lowest HCI endpoint IC50 (or in the absence of dose–response < 100 µM) < 30 × total human plasma exposure levels (Cmax.tot))
- Cmax [12]: 7820 nM
- Assigned DILI category ([13]; Chen et al. 2016 or literature alignment, ref Chen et al. 2016): 2
- In vivo DILI ([13]; ref Garside 2014): +VE
- In vivo DILI ([13]; ref O'Brien 2006): -VE
- In vivo DILI ([13]; ref Porceddu 2012): +VE
- In vivo DILI ([13]; ref Proctor 2017): +VE
- In vivo DILI ([13]; ref Schadt 2015): -VE

Structure (SMILES): Nc1cc(N2CCCCC2)nc(N)[n+]1[O-] [minoxidil]
- hLiMTs ATP <100uM [2]: -VE
- hLiMTs/100uM, Proctor (2017) [2, 17]: -VE
- HepaRG <25x Avg Cmax ATP [3]: -ve
- HepaRG <100x Avg Cmaxu ATP [3]: -ve
- HepaRG <25x Avg Cmax HCS [3]: -ve
- HepaRG <100x Avg Cmaxu HCS [3]: -ve
- HepaRG <25x Avg Cmax All [3]: -ve
- HepaRG Cmax max All [3]: -ve
- HepaRG Cmax min All [3]: -ve
- HepaRG <10 uM All [3]: -ve
- HepaRG <100x Avg Cmaxu All [3]: -ve
- DILI prediction HepaRG spheroids (HCS-MEC) [3]: -VE
- DILI +VE (5-8), DILI -VE (-4) ([5]; in vivo): -VE
- DILI severity category (Chen 2016) ([5]; in vivo): No
- DILI severity category (Chen et al. [2016]) ([5]; in vivo): No
- Partition Hybrid HRM Score ≥8, Aleo (2019) [14]: -VE
- Rule of Two hybrid HRM Score ≥8, Aleo (2019) [14]: -VE
- PHH/100uM, Proctor (2017) [6, 18]: -VE
- PHH ATP <100uM [6]: -VE
- Human plasma Cmax,u [7]: 1183 nM
- fu [8]: 0.990
- minimal effective concentration ([10]; read-out: HCS endpoint MEC): 111 µM
- DILI prediction hLiMTs (HCS-MEC) ([10]; Microtissue model structural based (HCI), combined HCS and ATP, MEC < 25 × Cmax.tot cut-off): -VE
- hLiMTs <25x Avg Cmax ATP [10]: -ve
- hLiMTs <100x Avg Cmaxu ATP [10]: -ve
- hLiMTs <25x Avg Cmax HCS [10]: -ve
- hLiMTs <100x Avg Cmaxu HCS [10]: +ve (<100x Avg Cmaxu)
- hLiMTs <25x Avg Cmax All [10]: -ve
- hLiMTs Cmax max All [10]: -ve
- hLiMTs Cmax min All [10]: -ve
- hLiMTs <10 uM All [10]: -ve
- hLiMTs <100x Avg Cmaxu All [10]: +ve (<100x Avg Cmaxu)
- Cmax [12]: 1200 nM
- Assigned DILI category ([13]; in vivo): 1
- In vivo DILI ([13]; in vivo): -VE

Structure (SMILES): CC/C(=C(\c1ccccc1)c1ccc(OCCN(C)C)cc1)c1ccccc1 [tamoxifen]
- Cluster 1-6 +VE Assay [1]: +VE
- Structural based (HCI) [15]: -VE
- HepaRG <25x Avg Cmax ATP [3]: -ve
- HepaRG <100x Avg Cmaxu ATP [3]: -ve
- HepaRG <25x Avg Cmax HCS [3]: +ve
- HepaRG <100x Avg Cmaxu HCS [3]: -ve
- HepaRG <25x Avg Cmax All [3]: +ve
- HepaRG Cmax max All [3]: +ve
- HepaRG Cmax min All [3]: +ve
- HepaRG <10 uM All [3]: +ve (<10 uM)
- HepaRG <100x Avg Cmaxu All [3]: -ve
- AC50 ([3]; read-out: ATP endpoint AC50): 12.7 µM
- minimal effective concentration ([3]; read-out: ATP endpoint MEC): 10.8 µM
- AC50 ([3]; read-out: HCS endpoint AC50): 16.7 µM
- minimal effective concentration ([3]; read-out: HCS endpoint MEC): 3.52 µM
- in vitro data EC2<=1x Cmax [4]: +VE
- in vitro data EC20<=2uM [4]: +VE
- hLiMTs ATP <20 x Cmax [16]: +VE (IC20 < 20 × Cmax.tot cut-off)
- Human plasma Cmax,u [7]: 3 nM
- fu [8]: 0.010
- AC50 ([10]; read-out: ATP endpoint AC50): 6.13 µM
- minimal effective concentration ([10]; read-out: ATP endpoint MEC): 3.93 µM
- AC50 ([10]; read-out: HCS endpoint AC50): 7.49 µM
- minimal effective concentration ([10]; read-out: HCS endpoint MEC): 1.97 µM
- hLiMTs <25x Avg Cmax ATP [10]: +ve
- hLiMTs <100x Avg Cmaxu ATP [10]: -ve
- hLiMTs <25x Avg Cmax HCS [10]: +ve
- hLiMTs <100x Avg Cmaxu HCS [10]: -ve
- hLiMTs <25x Avg Cmax All [10]: +ve
- hLiMTs Cmax max All [10]: +ve
- hLiMTs Cmax min All [10]: +ve
- hLiMTs <10 uM All [10]: +ve (<10 uM)
- hLiMTs <100x Avg Cmaxu All [10]: -ve
- Cmax [12]: 320 nM
